# Test results taken from US20020019536A1, “NEW URETHANES, THIO AND DITHIO ANALOGUES AND THEIR USE AS INHIBITORS OF CHOLESTEROL BIOSYNTHESIS” (priority 1997, published 2002).
# Columns and labels:
# [1] = Lipid reduction in the normolipaemic golden hamster; type: in vivo; conditions: compared with control group
# Experimental: III. Lipid Reduction in the Normolipaemic Golden Hamster This was determined using the method described in J. Lipid. Res. 38, 564-575, (1997). At the end of the experiment the total cholesterol, β-lipoprotein-cholesterol and HDL-cholesterol were determined and compared with the values of a control group which were fed without any test substance. The lipid-lowering activity of the abovementioned compounds E, G and I was tested.
# [2] = tested on: 14C-acetate incorporation into the steroids which can be precipitated with digitonin (cholesterol biosynthesis); experiment: Inhibition of 14C-acetate incorporation into the steroids which can be precipitated with digitonin; type: cell-based
# Text: I. Measuring the Inhibition of ^14C-acetate incorporation into the steroids which can be precipitated with digitonin: The inhibitory effect was investigated using the method described in J. Lipid. Res. 37, 148-157 [1996] at test concentrations of 10^−8 and 10^−9 mol/l.
# Pen. notatum CBS 19746 = experiment: Fungistatic activity, series dilution test; type: cell-based; conditions: Sabouraud broth, 2 to 4 days at 26° C.
# Experimental: (§1) V. Determining the Fungistatic Activity
# (§2) The fungistatic activity was determined by the series dilution test (microtitre system). Sabouraud broth was used as the nutrient medium. The inoculum amounted to about 10^4 to 10^5 CFU/ml (CFU=colony-forming units); the incubation period was 2 to 4 days at 26° C.
# (§3) The lowest concentration which allows no visible growth (minimum inhibitory concentration MIC) was determined.
# (§4) The abovementioned compounds B, E, G, I, K, L, N, Q and R were tested. The MIC is given in μg/ml.
# Asp. niger ATCC 16404 = experiment: Fungistatic activity, series dilution test; type: cell-based; conditions: Sabouraud broth, 2 to 4 days at 26° C.
# Experimental: as §1, §2, §3, §4
# Rhod. rubra 49 = experiment: Fungistatic activity, series dilution test; type: cell-based; conditions: Sabouraud broth, 2 to 4 days at 26° C.
# Experimental: as §1, §2, §3, §4
# [3] = tested on: Sacch. carisbergensis ATCC 9080; experiment: Fungistatic activity, series dilution test; type: cell-based; conditions: Sabouraud broth, 2 to 4 days at 26° C.
# Experimental: as §1, §2, §3, §4
# [4] = tested on: Cand. albicans ATCC 10231; experiment: Fungistatic activity, series dilution test; type: cell-based; conditions: Sabouraud broth, 2 to 4 days at 26° C.
# Experimental: as §1, §2, §3, §4
# [5] = tested on: Trich. mentagrophytes ATCC 9129; experiment: Fungistatic activity, series dilution test; type: cell-based; conditions: Sabouraud broth, 2 to 4 days at 26° C.
# Experimental: as §1, §2, §3, §4
# [6] = biological target: T1, 2,3-epoxysqualene-lanosterol-cyclase (Rattus norvegicus, UniProt P48450); experiment: In-vivo activity in the rat after oral administration: 2,3-epoxysqualene level in the liver
# T1 construct: Measuring the in-vivo Activity in the Rat after Oral Administration; from tissue; host or cells: living rat; 2,3-epoxysqualene measured in the liver
# T1 sequence (P48450 1-733): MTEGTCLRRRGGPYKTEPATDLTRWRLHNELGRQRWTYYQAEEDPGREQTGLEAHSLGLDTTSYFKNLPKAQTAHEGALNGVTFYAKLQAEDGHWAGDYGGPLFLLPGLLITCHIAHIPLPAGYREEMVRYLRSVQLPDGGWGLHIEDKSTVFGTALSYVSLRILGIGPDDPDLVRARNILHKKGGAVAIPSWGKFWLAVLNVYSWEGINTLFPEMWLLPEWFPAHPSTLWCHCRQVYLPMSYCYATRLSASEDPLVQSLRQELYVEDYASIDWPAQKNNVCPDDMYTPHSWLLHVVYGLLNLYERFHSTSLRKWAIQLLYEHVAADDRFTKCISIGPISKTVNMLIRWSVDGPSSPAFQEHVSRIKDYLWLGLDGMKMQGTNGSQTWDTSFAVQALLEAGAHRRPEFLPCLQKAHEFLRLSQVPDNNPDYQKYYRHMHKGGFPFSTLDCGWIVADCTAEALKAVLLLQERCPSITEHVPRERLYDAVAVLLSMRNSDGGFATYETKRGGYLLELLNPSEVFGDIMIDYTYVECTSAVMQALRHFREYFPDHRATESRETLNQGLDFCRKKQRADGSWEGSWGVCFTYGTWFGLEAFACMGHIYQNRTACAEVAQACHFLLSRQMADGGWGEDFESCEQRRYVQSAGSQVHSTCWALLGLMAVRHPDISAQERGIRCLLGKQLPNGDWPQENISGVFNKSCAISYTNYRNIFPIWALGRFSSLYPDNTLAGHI
# Experimental: II. Measuring the in-vivo Activity in the Rat after Oral Administration
# Inhibiting the enzyme 2,3-epoxysqualene-lanosterol-cyclase causes an increase in the 2,3-epoxisqualene levels in the liver and plasma. The quantity of 2,3-epoxysqualene formed therefore serves as a direct measurement of the potency on the animal as a whole. The amounts were determined using the method described in J. Lipid. Res. 38, 564-575, [1997] at t=3 or 8 hours after administration of the substance in concentrations of c=0.01, 0.03, 0.1, 0.3 and 1.0 mg/kg. Table 3 which follows gives the results obtained for the abovementioned substances A, B, C, E, G, H, O and R by way of example.
# In the control animals there were no measurable 2,3-epoxisqualene levels under these conditions.
# [7] = tested on: HaCat cells (human keratinocytes); experiment: Inhibition of cell proliferation (BrdU ELISA); type: cell-based; conditions: 10^−6 mol/l, average of three measurements, given as a percentage of the control (control 100%)
# Experimental: IV. Inhibition of Cell Proliferation
# HaCat cells (human keratinocytes) are seeded at a density of 10,000 cells per well in a 96 well microtitre plate. The culture medium used is Dulbecco's modified eagle medium (DMEM) with the addition of 10% calf serum. The cells are incubated for two days in an incubator, then the test substance, dissolved in dimethyl sulphoxide and diluted with culture medium, is added. After another two days incubation, 5-bromo-2′-deoxyuridine is added and the test results are determined according to the instructions (Boehringer Mannheim, Cell proliferation ELISA, BrdU(colorimetric)). The BrdU measurement was carried out at 380-490 nm in the Plate Reader made by Bio Rad.
# The proliferation-inhibiting activity of compounds E, G and H was investigated. The average of three measurements was calculated and the results are given as a percentage of the control (Table 5).
smiles,measurement,setting,value
"CN(C)Cc1ccc([C@H]2CC[C@H](N(C)C(=O)Oc3ccc(Cl)cc3)CC2)cc1.Cl [E, trans-O-(4-chlorophenyl)-N-4-[4-(dimethylaminomethyl)-phenyl]cyclohexyl-N-methylcarbamate-hydrochloride]",HDL-cholesterol,[1]; dose 0.5 mg/kg/day,−18.2%
same,Total cholesterol,[1]; dose 0.5 mg/kg/day,−22.5%
same,β-Lipoprotein-cholesterol,[1]; dose 0.5 mg/kg/day,−27.5%
same,HDL-cholesterol,[1]; dose 1.5 mg/kg/day,−24.0%
same,Total cholesterol,[1]; dose 1.5 mg/kg/day,−34.1%
same,β-Lipoprotein-cholesterol,[1]; dose 1.5 mg/kg/day,−48.4%
same,HDL-cholesterol,[1]; dose 4.9 mg/kg/day,−25.1%
same,Total cholesterol,[1]; dose 4.9 mg/kg/day,−34.3%
same,β-Lipoprotein-cholesterol,[1]; dose 4.9 mg/kg/day,−45.1%
same,IC50,[2]; 14C-acetate incorporation,0.3 nM
same,percentage inhibition of 14C-acetate incorporation,[2]; test concentration 10^−8 mol/l,−85%
same,percentage inhibition of 14C-acetate incorporation,[2]; test concentration 10^−9 mol/l,−57%
same,MIC Pen.,Pen. notatum CBS 19746,2 µg/mL
same,MIC Asp.,Asp. niger ATCC 16404,4 µg/mL
same,MIC Rhod.,Rhod. rubra 49,16 µg/mL
same,MIC Sacc.,[3],128 µg/mL
same,MIC Cand.,[4],16 µg/mL
same,MIC Trich.,[5],2 µg/mL
same,"2,3-epoxysqualene concentration in the liver (rat)","[6]; 0.01 mg/kg oral, 3 h after administration",20.3 µg/g
same,"2,3-epoxysqualene concentration in the liver (rat)","[6]; 0.01 mg/kg oral, 8 h after administration",32.7 µg/g
same,"2,3-epoxysqualene concentration in the liver (rat)","[6]; 0.03 mg/kg oral, 3 h after administration",39.0 µg/g
same,"2,3-epoxysqualene concentration in the liver (rat)","[6]; 0.03 mg/kg oral, 8 h after administration",44.6 µg/g
same,"2,3-epoxysqualene concentration in the liver (rat)","[6]; 0.1 mg/kg oral, 3 h after administration",92.5 µg/g
same,"2,3-epoxysqualene concentration in the liver (rat)","[6]; 0.1 mg/kg oral, 8 h after administration",191.5 µg/g
same,"2,3-epoxysqualene concentration in the liver (rat)","[6]; 0.3 mg/kg oral, 3 h after administration",63.4 µg/g
same,"2,3-epoxysqualene concentration in the liver (rat)","[6]; 0.3 mg/kg oral, 8 h after administration",180.0 µg/g
same,Cell proliferation (% of control),[7],19.6%
